# Measurements published in paper PMC12010937, “Evaluation of FXR Activity in Pollutants Identified in Sewage Sludge and Subsequent in Vitro and in Vivo Characterization of Metabolic Effects of Triphenyl Phosphate” (Environmental Health Perspectives, 2025).
# Values joined by “and” are separate entries in the source; they are usually repeats but may differ in a detail not shown here. Identical values can stand only once.
# Key:
# [1] = target: T1, human FXR-LBD (6His-FXR-LBD) (Homo sapiens, UniProt Q96RI1); experiment: Surface plasmon resonance (SPR) analysis; format: binding
# T1 construct: human FXR (residues 243–472) was expressed and purified as an amino-terminal 6His fusion protein; made in house; host or cells: E. coli BL21(DE3)
# T1 sequence (Q96RI1 243-472 isoform Q96RI1-2): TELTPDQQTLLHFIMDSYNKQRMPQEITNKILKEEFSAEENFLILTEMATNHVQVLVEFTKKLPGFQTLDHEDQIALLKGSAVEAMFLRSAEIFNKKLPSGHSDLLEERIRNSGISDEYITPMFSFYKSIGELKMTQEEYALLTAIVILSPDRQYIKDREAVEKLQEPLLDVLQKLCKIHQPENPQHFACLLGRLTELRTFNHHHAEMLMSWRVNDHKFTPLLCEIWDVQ
# Experimental: . First, 40μg/mL purified 6His-FXR-LBD protein was immobilized on a CM5 sensor chip (29149603; Cytiva) by amine coupling reaction. In detail, the carboxymethyl dextran surface of the CM5 sensor chip was activated by injecting a 1:1 mixture of 0.4M 1-ethyl-3-(3-dimethylaminopropyl)-carbodiimide (EDC) and 0.1M N-hydroxysuccinimide (NHS) for 7 min, then the 6His-FXR-LBD protein was injected and immobilized on the activated surface for 5 min, and subsequently the excess activated groups on the surface were deactivated by 1.0M ethanolamine (pH 8.5). Then, seven different concentrations of compounds (including 3.125μM , 6.25μM , 12.5μM , 25μM , 50μM , 100μM , and 200μM ) were prepared with HBS-EP buffer [ 10 mM HEPES, 150 mM NaCl, 3 mM EDTA, 0.005% (v/v) surfactant P20, pH 7.4], and the final DMSO concentration was adjusted to 2%. The samples were injected into the chip at a flow rate of 30μL/min for 60 s, followed by dissociation for 120 s at 25°C. One of the flow cells on the chip without FXR-LBD protein was used as a negative control. The responses were recorded during the experiment, and the sensorgrams were obtained by subtracting the binding response of the negative control. The equilibrium dissociation constant (KD) was determined by steady-state fitting mode with Biacore T200 Evaluation Software (version 3.2; Cytiva).
# [2] = system: FXR target genes and ceramide synthesis genes in ileum; experiment: qPCR of genes in mouse ileum; format: in vivo, C57BL/6N mice
# Experimental: (§1) Male C57BL/6N mice (8 wk of age) were purchased from Beijing Vital River Laboratory Inc. and acclimated to the environment for 2 wk before they were used for experiments. The environment was maintained at 22°C, in a 12-h light/dark cycle with 50%–60% relative humidity and fed standard chow diets. Because the male mice are more sensitive to metabolic disease than female mice and the estrous cycle of female mice may induce variability to the metabolic phenotypes,[50] only male mice were used in this study. Animals were randomly assigned to control or TPHP treatment groups (five mice per group). Mice were exposed to corn oil (control) purchased from Sigma-Aldrich (C8267) or TPHP (dissolved in corn oil) at 10mg/kg or 50mg/kg body weight (BW) by daily oral gavage for 35 d. The administered volume was 5mL/kg BW. The TPHP corn oil solutions for administration were prepared by dissolving the TPHP in corn oil, and the solutions were stored at −20°C and freshly prepared each week. BW was measured every other day during the dosing period. At the end of experiments, the mice were anesthetized with isoflurane, then blood was collected from the retro-orbital sinus via orbital puncture, and then the mice were euthanized by cervical dislocation. The liver was isolated, weighted, and divided into three fractions: one fraction was fixed with 4% neutral-buffered formalin for Oil Red staining; another fraction was frozen in liquid nitrogen and stored at −80°C for the BA targeted analysis, lipidomic analysis, and qPCR analysis; the remaining fraction was embedded with 3% carboxymethylcellulose (CMC) for MSI analysis. The ileum was also isolated, weighted, and stored at −80°C for the BA targeted analysis and qRT-PCR analysis. Cecal contents were collected from the cecum of mice for the 16S rRNA gene sequencing analysis. Animal study protocols were approved by the Animal Care and Use Committee of Peking University (approval number: Urban-WanY-1).
# Total RNA was extracted from cells or mice tissues (liver and ileum) using the Total RNA kit (Tiangen Biotech), and concentration and quality of the RNA were determined using a SMA4000 Nanodrop spectrophotometer (Merinton). Then, the RNA was reverse transcribed into cDNA by HiScript III RT SuperMix for qPCR (Vazyme). In addition, qPCR was performed in the Mx3005P real-time PCR system (Agilent Technologies) with the ChamQ SYBR qPCR Master Mix Kit (Vazyme). Reactions were carried out for 5 min at 95°C, followed by 40 cycles of two-step PCR for 10 s at 95°C and 30 s at 60°C. The relative RNA expression levels of the target genes were normalized to GAPDH using the 2^−ΔΔCt method.
# [3] = system: C57BL/6N mice; experiment: Oil Red O lipid staining of liver sections; format: in vivo; settings: TPHP exposure groups
# Experimental: as §1, with “The liver was isolated, weighted, and divided into three fractions: one fraction was fixed with 4% neutral-buffered formalin for Oil Red staining; another fraction was frozen in liquid nitrogen and stored at −80°C for the BA targeted analysis, lipidomic analysis, and qPCR analysis; the remaining fraction was embedded with 3% carboxymethylcellulose (CMC) for MSI analysis. The ileum was also isolated, weighted, and stored at −80°C for the BA targeted analysis and qRT-PCR analysis. Cecal contents were collected from the cecum of mice for the 16S rRNA gene sequencing analysis. Animal study protocols were approved by the Animal Care and Use Committee of Peking University (approval number: Urban-WanY-1).” left out
# [4] = system: PXR; settings: in vitro assays and in silico molecular docking; cited from earlier work
compound,measurement,setting,value
"O=P(Oc1ccccc1)(Oc1ccccc1)Oc1ccccc1 [TPHP, triphenyl phosphate]",Response (RU),[1]; 3.13 μM TPHP,1.43 RU
same,Response (RU),[1]; 6.25 μM TPHP,1.99 RU
same,Response (RU),[1]; 12.5 μM TPHP,3.33 RU
same,Response (RU),[1]; 25 μM TPHP,6.18 RU
same,Response (RU),[1]; 50 μM TPHP,11.56 RU
same,Response (RU),[1]; 100 μM TPHP,20.62 RU
same,Response (RU),[1]; 200 μM TPHP,25.20 RU
same,Relative mRNA expression of Asbt in ileum,"[2]; TPHP-H: 50 mg/kg, 35 d",1.65 fold changes and 1.26 fold changes and 1.68 fold changes
same,Relative mRNA expression of Cers2 in ileum,"[2]; TPHP-H: 50 mg/kg, 35 d",0.89 fold changes and 1.24 fold changes and 1.27 fold changes
same,Relative mRNA expression of Cers4 in ileum,"[2]; TPHP-H: 50 mg/kg, 35 d",1.11 fold changes and 0.99 fold changes and 1.05 fold changes
same,Relative mRNA expression of Cers6 in ileum,"[2]; TPHP-H: 50 mg/kg, 35 d",0.73 fold changes and 1.06 fold changes and 0.97 fold changes
same,Relative mRNA expression of Degs1 in ileum,"[2]; TPHP-H: 50 mg/kg, 35 d",0.95 fold changes and 0.99 fold changes and 1.02 fold changes
same,Relative mRNA expression of Degs2 in ileum,"[2]; TPHP-H: 50 mg/kg, 35 d",1.14 fold changes and 1.06 fold changes and 1.21 fold changes
same,Relative mRNA expression of Ibabp in ileum,"[2]; TPHP-H: 50 mg/kg, 35 d",0.78 fold changes and 0.85 fold changes and 0.92 fold changes
same,Relative mRNA expression of Ostα in ileum,"[2]; TPHP-H: 50 mg/kg, 35 d",0.84 fold changes and 0.68 fold changes and 0.79 fold changes
same,Relative mRNA expression of Shp in ileum,"[2]; TPHP-H: 50 mg/kg, 35 d",0.10 fold changes and 0.18 fold changes and 0.19 fold changes
same,Relative mRNA expression of Smpd2 in ileum,"[2]; TPHP-H: 50 mg/kg, 35 d",1.21 fold changes and 1.23 fold changes and 0.91 fold changes
same,Relative mRNA expression of Smpd3 in ileum,"[2]; TPHP-H: 50 mg/kg, 35 d",0.99 fold changes and 0.93 fold changes and 1.32 fold changes
same,Relative mRNA expression of Smpd4 in ileum,"[2]; TPHP-H: 50 mg/kg, 35 d",0.86 fold changes and 0.81 fold changes and 0.93 fold changes
same,Relative mRNA expression of Sptlc1 in ileum,"[2]; TPHP-H: 50 mg/kg, 35 d",1.12 fold changes and 0.98 fold changes and 0.80 fold changes
same,Relative mRNA expression of Sptlc2 in ileum,"[2]; TPHP-H: 50 mg/kg, 35 d",1.09 fold changes and 1.01 fold changes and 0.85 fold changes
same,Relative mRNA expression of Asbt in ileum,"[2]; TPHP-L: 10 mg/kg, 35 d",1.43 fold changes and 1.04 fold changes and 1.42 fold changes
same,Relative mRNA expression of Cers2 in ileum,"[2]; TPHP-L: 10 mg/kg, 35 d",1.06 fold changes and 1.32 fold changes and 1.08 fold changes
same,Relative mRNA expression of Cers4 in ileum,"[2]; TPHP-L: 10 mg/kg, 35 d",1.04 fold changes and 1.11 fold changes and 1.40 fold changes
same,Relative mRNA expression of Cers6 in ileum,"[2]; TPHP-L: 10 mg/kg, 35 d",0.77 fold changes and 1.22 fold changes and 1.15 fold changes
same,Relative mRNA expression of Degs1 in ileum,"[2]; TPHP-L: 10 mg/kg, 35 d",1.06 fold changes and 1.19 fold changes and 1.18 fold changes
same,Relative mRNA expression of Degs2 in ileum,"[2]; TPHP-L: 10 mg/kg, 35 d",1.13 fold changes and 0.96 fold changes and 1.41 fold changes
same,Relative mRNA expression of Fgf15 in ileum,"[2]; TPHP-L: 10 mg/kg, 35 d",0.80 fold changes and 0.54 fold changes and 0.50 fold changes
same,Relative mRNA expression of Ibabp in ileum,"[2]; TPHP-L: 10 mg/kg, 35 d",0.79 fold changes and 0.87 fold changes and 0.75 fold changes
same,Relative mRNA expression of Ostα in ileum,"[2]; TPHP-L: 10 mg/kg, 35 d",0.81 fold changes and 0.96 fold changes and 0.82 fold changes
same,Relative mRNA expression of Shp in ileum,"[2]; TPHP-L: 10 mg/kg, 35 d",0.33 fold changes and 0.38 fold changes and 0.36 fold changes
same,Relative mRNA expression of Smpd2 in ileum,"[2]; TPHP-L: 10 mg/kg, 35 d",1.01 fold changes and 1.00 fold changes and 1.07 fold changes
same,Relative mRNA expression of Smpd3 in ileum,"[2]; TPHP-L: 10 mg/kg, 35 d",1.11 fold changes and 1.07 fold changes and 1.10 fold changes
same,Relative mRNA expression of Smpd4 in ileum,"[2]; TPHP-L: 10 mg/kg, 35 d",0.84 fold changes and 0.96 fold changes
same,Relative mRNA expression of Sptlc1 in ileum,"[2]; TPHP-L: 10 mg/kg, 35 d",0.87 fold changes and 1.15 fold changes and 0.75 fold changes
same,Relative mRNA expression of Sptlc2 in ileum,"[2]; TPHP-L: 10 mg/kg, 35 d",0.89 fold changes and 1.15 fold changes and 1.13 fold changes
same,Expression of ceramide synthesis genes in the ileum vs control (in words),[2]; after TPHP exposure,not significantly different
same,Oil Red O staining intensity of liver sections vs control (in words),[3],higher
same,PXR activity reported (in words),[4],agonists
